Results taken from patent US12084442B2, “Naphthyridinone derivatives for the treatment of a disease or disorder” (Novartis AG, priority 2021, dated 2024).

Tests used:
[1] = Pharmacokinetic properties in rats (IV and PO, whole blood LC-MS/MS); format: in vivo, Spargue Dawley/CD, male; conditions: for Rat AUC0-24 h 3 mg/kg: 3 mg/kg PO, suspension; for Rat AUC0-24 h 3 mg/kg / clearance: whole blood; for clearance: male, Sprague Dawley/CD, rat, IV dosing (0.3-1 mg/kg), CL = Dose/AUCinf; for Rat F: oral bioavailability, PO 3 mg/kg vs IV
Procedure: The pharmacokinetic properties of the compounds in rats were assessed by the following in vivo studies as described below.
At least four days before first drug administration, the rats (250-350 g) were anesthetized and, under aseptic conditions, catheters were surgically implanted into the left and right jugular veins (one for blood collection and the other one for intravenous injection). The catheters were exteriorized and fixed at the neck. For analgesic treatment, animals received analgesics before surgery and subsequently twice at appropriate times after surgery. The freely-moving animals equipped with catheters are kept individually in Macrolon cages, with free access to food and water throughout the experiment. After a recovery phase of at least 4 days, a single test compound was administered intravenously or orally, based upon the individual body weights.
The test articles were administered as solution in NMP:PEG 200 (10:90 v/v). Test articles where no solution can be obtained were rejected and not used in discrete or cassette dosing.
The test article were administered as suspension in MC:Tween 80:water (0.5:0.1:99.4 w/v/v).
The test article was administered as solution and as a bolus injection or as short I.V. infusion (30 seconds) via the left jugular vein catheter to conscious rats. The dose volume was 0.5 mL/kg body weight.
The test article was administered as a solution or suspension into the esophagus via a gavage tube to conscious rats. The dose volume was 5 mL/kg body weight. The exact start time of dosing and exact dose volume was noted.
Blood samples (20 μL) were collected from the right jugular vein catheter of cannulated animals (if JV catheter becomes non patent during the PK experiment (i.e., after dosing), blood can exceptionally be collected by tail vein puncture but it must be clearly specified into the in-life observations and data study rep) in tubes containing 10% of blood of 2% W/V K2 EDTA (2.0 mg/mL) at the different time intervals. Blood was collected following IV dosing at 0.083, 0.25, 0.5, 1, 2, 4, 7 and 24 h post dose. Blood was collected following PO dosing: 0.25, 0.5, 1, 2, 4, 7 and 24 h post dose.
The concentrations of compounds in whole blood were quantified using a liquid chromatography/mass spectrometry (LC-MS/MS) assay. 20 μL of each blood sample were precipitated with 100 μL of acetonitrile containing generic internal standards (carbamazepine/telmisartan/verapamil; c=50 ng/mL). The samples were vortexed thoroughly then centrifuged (5 min, 4° C.). The supernatant (80 μL) was transferred to a clean 96-well plate and mixed with 80 μL of water.
The samples were injected (1 to 20 μL) onto suitable analytical columns, using various isocratic methods and flow rates. Mobile phases typically consisting of 0.1% formic acid in water (solvent A) and 0.1% formic acid in acetonitrile (solvent B) with additional modifiers, if needed. Compounds and the internal standards were eluted at various retention times. The HPLC systems were interfaced to mass spectrometers. MS/MS analyses were carried out using electrospray ionization (ESI), typically in the positive ionization mode. Compounds and the internal standards were monitored using multiple reaction monitoring (MRM).
The standard curves employed for sample quantitation ranged over several log units. The lower limit of quantitation (LLOQ) in blood was determined and used as cutoff for the analytical sensitivity. Known amounts of the compounds were spiked into blood to create quality control samples with six known concentrations in singlets. The accuracy of the in vivo blood sample concentration determination was considered acceptable when the intra-assay accuracies obtained for the quality control samples were within 70% to 130% of the expected concentrations. Subsequently, from the time concentration data, pharmacokinetic parameters were calculated by non-compartmental regression analyses using an in house fitting program. […]

[2] = Pharmacokinetic study in male Beagle dogs; format: in vivo
[3] = biological target: GIRK1/4 (Homo sapiens (Human), UniProt P48544+P48549); assay: GIRK1/4 activity assay (Quattro/IonWorks population patch clamp, inward potassium current); format: cell-based; conditions: GIRK1/4 HEK293 stable cells; current inhibition normalized to DMSO-only control
GIRK1/4, sequence (P48549 whole entry): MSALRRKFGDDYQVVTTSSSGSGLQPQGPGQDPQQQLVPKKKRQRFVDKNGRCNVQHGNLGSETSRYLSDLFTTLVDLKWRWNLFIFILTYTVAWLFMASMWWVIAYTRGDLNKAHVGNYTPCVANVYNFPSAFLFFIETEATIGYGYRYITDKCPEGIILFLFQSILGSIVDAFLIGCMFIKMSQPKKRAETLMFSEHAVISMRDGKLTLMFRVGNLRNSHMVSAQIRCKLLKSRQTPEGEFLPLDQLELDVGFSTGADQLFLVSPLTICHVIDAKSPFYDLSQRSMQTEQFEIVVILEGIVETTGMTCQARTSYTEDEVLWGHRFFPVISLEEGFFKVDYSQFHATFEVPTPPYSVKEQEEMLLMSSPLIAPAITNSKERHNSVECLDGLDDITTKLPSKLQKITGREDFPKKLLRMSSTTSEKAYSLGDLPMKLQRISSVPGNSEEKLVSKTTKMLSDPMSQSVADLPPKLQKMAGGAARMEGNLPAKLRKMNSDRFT
GIRK1/4, sequence (P48544 whole entry): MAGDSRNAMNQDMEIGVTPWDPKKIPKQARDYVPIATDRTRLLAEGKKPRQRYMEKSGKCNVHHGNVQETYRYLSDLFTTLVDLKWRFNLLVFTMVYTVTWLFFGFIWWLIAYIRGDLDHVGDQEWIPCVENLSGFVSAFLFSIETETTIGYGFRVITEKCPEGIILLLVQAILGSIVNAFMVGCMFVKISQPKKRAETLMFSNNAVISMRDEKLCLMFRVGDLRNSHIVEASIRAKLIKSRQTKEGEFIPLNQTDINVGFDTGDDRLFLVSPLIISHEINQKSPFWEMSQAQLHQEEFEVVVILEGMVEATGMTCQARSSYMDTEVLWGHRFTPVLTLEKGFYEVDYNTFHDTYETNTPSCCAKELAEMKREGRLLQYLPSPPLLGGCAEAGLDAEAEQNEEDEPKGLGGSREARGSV
Procedure: The GIRK1/4 activity of a compound according to the present invention was assessed by the following in vitro method.
• a. External buffer: 10 mM NaCl, 50 mM Na Gluconate, 80 mM K Gluconate, 1.8 mM CaCl2, 1 mM MgCl2, 10 mM HEPES, 10 mM Glucose, pH 7.4; osmolarity 300-310 Osm/L. • b. Internal buffer: 30 mM KCl, 100 mM K Gluconate, 1 mM MgCl2, 10 mM HEPES, 1 mM EGTA, 10 mM NaCl, pH 7.2; osmolarity 284-292 Osm/L. Compounds: • c. Prepare seven-fold compound dilution series (10 mM to 20 uM) in 100% DMSO, in 384-well polypropylene plates. • d. Propafenone (Sigma Aldrich, catalog number P4670) was used as a positive control and DMSO for neutral control • e. Resuspend 1 μl of compounds in DMSO into 66.7 μl external buffer in 384-well polypropylene plate and load into Plate 1 section of Molecular Devices Quattro® Quattro Setup: • f. Load 384-well Population Patch Plate (Molecular Devices #9000-0902) into Quattro • g. Fill Quattro F-soak trough with 20% DMSO and 50% EtOH • h. Fill Quattro buffer trough with external buffer • i. Attach internal buffer flask to Quattro internal buffer tubing • j. Attach PBS (Phosphate Buffered Saline, minus Ca^++ and Mg^++, pH7.4) bottle to F-head & E-head wash on Quattro Antibiotic: • k. Resuspend 5.1-5.8 mg amphotericin B (Sigma Aldrich, catalog number A2411) in 175 μl DMSO • l. Add the resulting solution to 50 mL internal buffer and attach to antibiotic tubing port on Quattro Cells: • m. Use GIRK1/4 HEK293 stable cells (obtained from ChanTest, 14656 Neo Parkway, Cleveland, Ohio 44128) grown to ˜80% confluency in the following cell culture medium: DMEM containing 10% (v/v) Fetal Bovine Serum, Penicillin/Streptomycin (at “IX” concentration from a 100× stock), 0.5 mg/mL G418 and 0.1 mg/mL Zeocin. • n. Detach cells using Detachin (Genlantis, 11011 Torreyana, San Diego, CA 92121), washed with PBS (minus Ca^++ and Mg^++) and resuspend in external buffer (5 mL final volume at 2.0-2.1×10^6 cells/mL) • o. Load into cell trough of Quattro Assay Protocol:
Quattro was controlled using IonWorks v2 software to perform the following steps: • p. Added 3.5 μl cells plus 3.5 μl external buffer to wells of Quattro Patch Plate® • q. Circulated amphotericin B and internal buffer onto cells • r. Applied the following voltage protocol: Pulse 1: 15 mV for 300 milliseconds (ms), followed by Pulse 2: −120 mV for 400 ms, then Pulse 3: −15 mV for 400 ms, and finally Pulse 4: −120 mV to 40 mV over 500 ms (this is a voltage ramp). • s. Measured magnitude of inward potassium current at time point between 1200-1220 ms from start of Pulse 1 (i.e., during the voltage ramp phase). • t. Added 3.5 μl of diluted compounds (or DMSO) to wells and repeated […] (final compound concentrations are 50 uM to 0.1 uM, and each concentration was tested in quadruplicate—i.e., in 4 separate wells). • u. The difference between current magnitude pre vs. post-compound gave a measure of GIRK1/4 inhibition. Data Analysis:
IC50 values were calculated by plotting the percentage of current inhibition (normalized to the DMSO-only control) as a function of compound concentration using standard data analysis software.

Rat AUC0-24 h 3 mg/kg [1] [nMh]	clearance [1] [mL/min/kg]	Rat F [1] [%]	AUC0-24 h ([2]; 0.3 mg/kg IV solution and 1 mg/kg PO suspension) [nMh]	clearance ([2]; dog, in vivo, 0.3 mg/kg IV as a solution, read-out: Clearance (Cl)) [mL/min/kg]	bioavailability ([2]; dog, in vivo, 1 mg/kg PO as a suspension vs 0.3 mg/kg IV, read-out: Oral bioavailability (F)) [%]	IC50 [3] [nM]	Compound
3270	20.2	71	5270	5.5	87	90	CNC(=O)CCOc1ncc(Cl)c2c1c(=O)cc(C)n2-c1c(Cl)cc(OCCO)cc1Cl [Example 1, 3-((8-Chloro-1-(2,6-dichloro-4-(2-hydroxyethoxy)phenyl)-2-methyl-4-oxo-1,4-dihydro-1,6-naphthyridin-5-yl)oxy)-N-methylpropanamide]
4410	13.6	61				70	CNC(=O)[C@H](C)COc1ncc(Cl)c2c1c(=O)cc(C)n2-c1c(Cl)cc(OCCO)cc1Cl [Example 7, (R)-3-((8-Chloro-1-(2,6-dichloro-4-(2-hydroxyethoxy)phenyl)-2-methyl-4-oxo-1,4-dihydro-1,6-naphthyridin-5-yl)oxy)-N,2-dimethylpropanamide]
1460	24.2	40				80	CC(=O)NCCOc1ncc(Cl)c2c1c(=O)cc(C)n2-c1c(Cl)cc(OCCO)cc1Cl [Example 9, N-(2-((8-chloro-1-(2,6-dichloro-4-(2-hydroxyethoxy)phenyl)-2-methyl-4-oxo-1,4-dihydro-1,6-naphthyridin-5-yl)oxy)ethyl)acetamide]
2410	18.4	55				60	CNC(=O)[C@@H](O)COc1ncc(Cl)c2c1c(=O)cc(C)n2-c1c(Cl)cc(OCCO)cc1Cl [Example 13, (S)-3-((8-Chloro-1-(2,6-dichloro-4-(2-hydroxyethoxy)phenyl)-2-methyl-4-oxo-1,4-dihydro-1,6-naphthyridin-5-yl)oxy)-2-hydroxy-N-methylpropanamide]
1290	32.8	46				320	CNC(=O)CCOc1ncc(Cl)c2c1c(=O)cc(C)n2-c1c(Cl)cc(OCC2(O)COC2)cc1Cl [Example 15, 3-((8-Chloro-1-(2,6-dichloro-4-((3-hydroxyoxetan-3-yl)methoxy)phenyl)-2-methyl-4-oxo-1,4-dihydro-1,6-naphthyridin-5-yl)oxy)-N-methylpropanamide]
2310	31.7	73				250	CNC(=O)COc1cc(Cl)c(-n2c(C)cc(=O)c3c(OCC(N)=O)ncc(Cl)c32)c(Cl)c1 [Example 17, 2-(4-(5-(2-Amino-2-oxoethoxy)-8-chloro-2-methyl-4-oxo-1,6-naphthyridin-1(4H)-yl)-3,5-dichlorophenoxy)-N-methylacetamide]
1290	27.9	46				50	CC(=O)NCCCc1ncc(Cl)c2c1c(=O)cc(C)n2-c1c(Cl)cc(OCCO)cc1Cl [Example 19, N-(3-(8-Chloro-1-(2,6-dichloro-4-(2-hydroxyethoxy)phenyl)-2-methyl-4-oxo-1,4-dihydro-1,6-naphthyridin-5-yl)propyl)acetamide]
2407	19.8	44				50	Cc1cc(=O)c2c(CCS(C)(=O)=O)ncc(Cl)c2n1-c1c(Cl)cc(OCCO)cc1Cl [Example 20, 8-Chloro-1-(2,6-dichloro-4-(2-hydroxyethoxy)phenyl)-2-methyl-5-(2-(methylsulfonyl)ethyl)-1,6-naphthyridin-4(1H)-one]
1360	23.6	37				190	Cc1cc(=O)c2c(CCCS(C)(=O)=O)ncc(Cl)c2n1-c1c(Cl)cc(OCC(C)(C)O)cc1Cl [Example 22, 8-Chloro-1-(2,6-dichloro-4-(2-hydroxy-2-methylpropoxy)phenyl)-2-methyl-5-(3-(methylsulfonyl)propyl)-1,6-naphthyridin-4(1H)-one]
